Data as given in PubChem BioAssay AID2060606 (Molecular Pharmacology Branch, DTP, NCI, 2025).

Tested on: 922993-354-T-J3-PDC complex spheroids, viability, % test/control
Assay: Anticancer human tumor 922993-354-T-J3-PDC patient-derived endometrial carcinoma cell line growth inhibition [CLK]
Conditions: for IC50: curve of first compound; for viability, T/C: stronger effect = lower value
Description: A high-throughput screen of multi-cell type tumor spheroids was designed to identify active combinations of […] and targeted small molecules. Complex spheroids include a stromal component modeled by human endothelial cells (HUVEC) and fibroblasts modeled by human mesenchymal stem cells (MSCs). The concentration ranges selected for each drug and investigational agent were based upon clinically achievable concentrations if the clinical Cmax of the agent was known.
Compounds. The drugs and investigational agents: cirtuvivint (SM08502; NSC835563), CC-671 (NSC850746), vemurafenib (NSC761431), tapotoclax (NSC804041), sotorasib (NSC818433), adagrasib (NSC831453), MRTX-1133 (NSC836407), BAY2416964 (NSC825713), copanlisib (NSC816437), inavolisib (NSC800729), abemaciclib (NSC768073), osimertinib (NSC779217), entinostat (NSC756642), eltanexor (KPT-8602, NSC794443), venetoclax (NSC766270), ceralasertib (NSC777638), bortezomib (NSC756655), olaparib (NSC753686), talazoparib (NSC767125), alisertib (NSC759677), peposertib (NSC802822), gemcitabine (NSC613327), 5-fluorouracil (NSC19893), SN-38 (NSC673596), oxaliplatin (NSC266046), paclitaxel (NSC125973), and doxorubicin (NSC123127), were obtained from the National Cancer Institute (NCI) Developmental Therapeutics Program Chemical Repository. The FDA-approved anticancer drug set is available from the Developmental Therapeutics Program at https://dtp.cancer.gov/organization/dscb/obtaining/available plates.htm. […] The stock solutions were prepared in dimethyl sulfoxide (DMSO, Sigma-Aldrich, St. Louis, MO, cat. D2650), except for the platinum complexes which were prepared in saline (Quality Biological, Gaithersburg, MD, cat. 114-055-101), at 800-fold the tested concentration and stored at -70 degrees C prior to their use. All drugs and investigational agents were tested over a range starting from a high concentration at or near the clinical Cmax and decreasing in half-log increments. If the clinical Cmax for an agent had not been determined, the highest concentration tested was 10 microM.
Cell Culture. All cells were maintained in an incubator at 37 degrees C and 5% CO2 with 95% humidity. The PDC lines were cultured according to standard operating procedures established by the NCI PDMR. Briefly, all PDCs were thawed and cultured in Matrigel-coated flasks prepared with a working solution of 1X Ham's F-12 nutrient mix, without supplementation (Invitrogen, Waltham, MA, cat. 11765054), 100 U/mL penicillin-streptomycin (Invitrogen, cat. 15140122), and 2.5% Matrigel (Corning Inc., Corning, NY, cat. 354248) for the first three passages. The 947758-054-R-J2-PDC line was cultured in 6B/Colon 1A media, which includes advanced DMEM/F-12 (Thermo Fisher Scientific, cat. 12634028), 10 mM HEPES (Thermo Fisher Scientific, cat. 15630080), 1X GlutaMAX supplement (Thermo Fisher Scientific, cat. 35050061), 0.1 mg/mL primocin (InvivoGen, cat. ant-pm-2), 10% defined fetal bovine serum, heat inactivated (HyClone Laboratories Inc., cat. SH30070.03HI), 1.25 mM N-Acetyl-L-cysteine (Sigma-Aldrich, cat. A9165), 10 mM nicotinamide (Sigma-Aldrich, cat. N0636), 1X B-27 supplement (Thermo Fisher Scientific, cat. 17504044), 1X N-2 supplement (Thermo Fisher Scientific, cat. 17502048), and 10 microM Y-27632 dihydrochloride (Tocris Bioscience, cat. 1254). The 876862-298-R-J1-PDC was cultured in 6E media, which includes all 6B/Colon 1A media components plus 50% L-WRN conditioned media (ATCC, cat. CRL-3276), 50 ng/mL recombinant human EGF recombinant protein (hEGF; Thermo Fisher Scientific, cat. PHG0311), 10 ng/mL recombinant human fibroblast growth factor 10 (hGFG-10; PeproTech, cat. 100-26), 1 ng/mL recombinant human fibroblast growth factor 2 (hFGF-2; PeproTech, cat. 100-18B), and 1 µM prostaglandin E2 (PGE2; Tocris, cat. 2296). The 227483-062-R1-J1-PDC line was cultured in Panc media, containing all 6E components except hFGF-2, with the addition of 500 nM SB-431542 (Selleckchem, cat. S1067) and 10 nM gastrin (Tocris, cat. 3006). […]

[1] = second compound 0.0316 µM, first compound 0.0316 µM
[2] = second compound 0.0316 µM, first compound 0.1 µM
[3] = second compound 0.0316 µM, first compound 0.316 µM
[4] = second compound 0.0316 µM, first compound 1 µM
[5] = second compound 0.0316 µM, first compound 3.16 µM
[6] = second compound 0.0316 µM, first compound 10 µM
[7] = second compound 0.1 µM, first compound 0.0316 µM
[8] = second compound 0.1 µM, first compound 0.1 µM
[9] = second compound 0.1 µM, first compound 0.316 µM
[10] = second compound 0.1 µM, first compound 1 µM
[11] = second compound 0.1 µM, first compound 3.16 µM
[12] = second compound 0.1 µM, first compound 10 µM
[13] = second compound 0.316 µM, first compound 0.0316 µM
[14] = second compound 0.316 µM, first compound 0.1 µM
[15] = second compound 0.316 µM, first compound 0.316 µM
[16] = second compound 0.316 µM, first compound 1 µM
[17] = second compound 0.316 µM, first compound 3.16 µM
[18] = second compound 0.316 µM, first compound 10 µM
[19] = second compound 1 µM, first compound 0.0316 µM
[20] = second compound 1 µM, first compound 0.1 µM
[21] = second compound 1 µM, first compound 0.316 µM
[22] = second compound 1 µM, first compound 1 µM
[23] = second compound 1 µM, first compound 3.16 µM
[24] = second compound 1 µM, first compound 10 µM
[25] = second compound 3.16 µM, first compound 0.0316 µM
[26] = second compound 3.16 µM, first compound 0.1 µM
[27] = second compound 3.16 µM, first compound 0.316 µM
[28] = second compound 3.16 µM, first compound 1 µM
[29] = second compound 3.16 µM, first compound 3.16 µM
[30] = second compound 3.16 µM, first compound 10 µM
[31] = second compound 10 µM, first compound 0.0316 µM
[32] = second compound 10 µM, first compound 0.1 µM
[33] = second compound 10 µM, first compound 0.316 µM
[34] = second compound 10 µM, first compound 1 µM
[35] = second compound 10 µM, first compound 3.16 µM
[36] = second compound 10 µM, first compound 10 µM
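Further: spheroids exposed to the agents for 7 days before readout.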

Which results are given for CC(Nc1ccc2c(c1)OCCn1cc(N3C(=O)OCC3C(F)F)nc1-2)C(N)=O (centres undefined) + CNC(=O)c1ccc(Nc2nc(OC3CCCC3)c3c(-c4ccc5nc(C)oc5c4)c[nH]c3n2)c(OC)c1?
IC50 (second compound 0.0316 µM): 3780 nM; IC50 (second compound 0.1 µM): 4180 nM; IC50 (second compound 0.316 µM): 1960 nM; IC50 (second compound 1 µM): < 31.6 nM; IC50 (second compound 3.16 µM): < 31.6 nM; IC50 (second compound 10 µM): < 31.6 nM; viability, T/C [1]: 116%; viability, T/C [2]: 106%; viability, T/C [3]: 84.8%; viability, T/C [4]: 70.6%; viability, T/C [5]: 57%; viability, T/C [6]: 31.7%; viability, T/C [7]: 108%; viability, T/C [8]: 102%; viability, T/C [9]: 99.5%; viability, T/C [10]: 74.5%; viability, T/C [11]: 55.9%; viability, T/C [12]: 37%; viability, T/C [13]: 71.7%; viability, T/C [14]: 69.3%; viability, T/C [15]: 77.6%; viability, T/C [16]: 63.8%; viability, T/C [17]: 40%; viability, T/C [18]: 31.8%; viability, T/C [19]: 39.8%; viability, T/C [20]: 36.5%; viability, T/C [21]: 26.4%; viability, T/C [22]: 23.1%; viability, T/C [23]: 15.2%; viability, T/C [24]: 10.8%; viability, T/C [25]: 35.1%; viability, T/C [26]: 27.4%; viability, T/C [27]: 24%; viability, T/C [28]: 16.3%; viability, T/C [29]: 12.3%; viability, T/C [30]: 10.8%; viability, T/C [31]: 28.9%; viability, T/C [32]: 27.2%; viability, T/C [33]: 21.5%; viability, T/C [34]: 17.6%; viability, T/C [35]: 13.4%; viability, T/C [36]: 9.54%

With CC(=O)O[C@H]1C(=O)[C@@]2(C)[C@H]([C@H](OC(=O)c3ccccc3)[C@]3(O)C[C@H](OC(=O)[C@H](O)[C@@H](NC(=O)c4ccccc4)c4ccccc4)C(C)=C1C3(C)C)[C@]1(OC(C)=O)CO[C@@H]1C[C@@H]2O + CN1CCN(c2cc(C(=O)Nc3cc4cc(-c5cnn(C)c5)ccc4cn3)ccn2)CC1 as the molecule, how does the IC50 (second compound 0.0316 µM) read?
The IC50 was 2880 nM.

And the IC50 (second compound 0.1 µM)?
The IC50 was 2370 nM.

What about the IC50 (second compound 0.316 µM) of the same molecule?
Its IC50 is < 31.6 nM.

And the IC50 (second compound 1 µM)?
The IC50 was < 31.6 nM.

And the IC50 (second compound 3.16 µM)?
Its IC50 is < 31.6 nM.

And the IC50 (second compound 10 µM)?
Its IC50 is < 31.6 nM.

And the viability, T/C [1]?
The viability, T/C was 110%.

What about the viability, T/C [2] of the same molecule?
Its viability, T/C is 126%.

What about the viability, T/C [3] of the same molecule?
The viability, T/C was 91.4%.

What about the viability, T/C [4] of the same molecule?
The viability, T/C was 95%.

And the viability, T/C [5]?
Its viability, T/C is 43.5%.

And the viability, T/C [6]?
Its viability, T/C is 36.3%.

And the viability, T/C [7]?
The viability, T/C was 94.8%.

And the viability, T/C [8]?
Its viability, T/C is 100%.

And the viability, T/C [9]?
The viability, T/C was 98.3%.

What about the viability, T/C [10] of the same molecule?
The viability, T/C was 63.1%.

What about the viability, T/C [11] of the same molecule?
The viability, T/C was 50.1%.

What about the viability, T/C [12] of the same molecule?
Its viability, T/C is 30.3%.

And the viability, T/C [13]?
Its viability, T/C is 26%.

What about the viability, T/C [14] of the same molecule?
The viability, T/C was 24.9%.

And the viability, T/C [15]?
The viability, T/C was 29.8%.

And the viability, T/C [16]?
Its viability, T/C is 19.9%.

What about the viability, T/C [17] of the same molecule?
Its viability, T/C is 16.1%.

And the viability, T/C [18]?
The viability, T/C was 14.4%.

And the viability, T/C [19]?
The viability, T/C was 0.1%.

What about the viability, T/C [20] of the same molecule?
The viability, T/C was 0.47%.

What about the viability, T/C [21] of the same molecule?
The viability, T/C was 0.12%.

And the viability, T/C [22]?
The viability, T/C was 0.07%.

And the viability, T/C [23]?
Its viability, T/C is 0.06%.

And the viability, T/C [24]?
The viability, T/C was 0.07%.

And the viability, T/C [25]?
Its viability, T/C is 0.1%.

And the viability, T/C [26]?
Its viability, T/C is 0.79%.

What about the viability, T/C [27] of the same molecule?
The viability, T/C was 0.18%.

And the viability, T/C [28]?
Its viability, T/C is 0.67%.

And the viability, T/C [29]?
Its viability, T/C is 0.76%.

What about the viability, T/C [30] of the same molecule?
Its viability, T/C is 0.11%.

And the viability, T/C [31]?
Its viability, T/C is 0.12%.

And the viability, T/C [32]?
The viability, T/C was 0.14%.

What about the viability, T/C [33] of the same molecule?
Its viability, T/C is 0.2%.

And the viability, T/C [34]?
The viability, T/C was 0.16%.

And the viability, T/C [35]?
The viability, T/C was 1.02%.

And the viability, T/C [36]?
The viability, T/C was 2.94%.
